Some test systems named below: HCT-15; TK-10; OVCAR-5; UACC-62; SK-OV-3; ACHN; CAKI-1; K562; MOLT-4; MDA-N; MCF7; EKVX; LOX IMVI; COLO 205; UACC-257; SF-295; SF-539; RPMI-8226.
Experiment in all cases: inhibition of tumour cell growth, NCI panel, 48 h

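Values below derive from 48-hour exposures of cells grown in 96-well plates, with endpoints linearly interpolated between the two concentrations bracketing the appropriate inhibition level. GI50 marks 50% less growth.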 The source made the active and inactive calls. No stated cut-off is given here; in the data, active = GI50 up to about 1.1 µM and inactive = higher. Residues, ends and D or L forms follow the SMILES beside them. *: point of attachment. Boc = CC(C)(C)OC(=O)*; OBn = c1ccc(CO*)cc1 Where only a bound is given, the exact number is not on record here.

As to `Cc1ccc2nc(N/N=C/c3sccc3C)cc(C)c2c1`, the GI50 is > 100 µM with HCT-15; 29.1 µM (inactive) in the experiment on TK-10; > 100 µM (inactive) with OVCAR-5; > 100 µM (inactive) in the experiment on UACC-62; 21.1 µM (inactive) in the experiment on SK-OV-3; > 100 µM (inactive) in the experiment on ACHN. Also, the GI50 was > 100 µM (inactive) with CAKI-1; > 100 µM (inactive) in the experiment with K562; > 100 µM (inactive) with MOLT-4; > 100 µM (inactive) in the experiment with MDA-N; 25.3 µM (inactive) with MCF7; > 100 µM (inactive) in the experiment on EKVX. In addition, the GI50 in the experiment with LOX IMVI, in the experiment on COLO 205 and in the experiment with UACC-257 was > 100 µM (inactive) throughout.

In the case of `NNC(=O)CCC(NS(=O)(=O)c1ccc(Cl)cc1)C(=O)NN` (stereo unspecified), the GI50 is > 100 µM in the experiment on HCT-15; > 100 µM (inactive) in the experiment on SF-295; > 100 µM (inactive) with TK-10; > 100 µM (inactive) in the experiment on SF-539; > 100 µM (inactive) in the experiment with OVCAR-5; > 100 µM (inactive) with UACC-62. Besides, the GI50 in the experiment on SK-OV-3, in the experiment on ACHN, in the experiment with CAKI-1, with K562, in the experiment with MOLT-4 and in the experiment on MDA-N was > 100 µM (inactive) in each case. Also, the GI50 in the experiment on MCF7, with EKVX, with LOX IMVI, in the experiment with COLO 205 and in the experiment on UACC-257 was > 100 µM (inactive) throughout.

For the molecule `O=C(O)CCC(NC(=O)c1ccc(Oc2nc3ccccc3nc2-c2ccccc2)cc1)C(=O)O` (stereo unspecified), the GI50 with HCT-15 is > 100 µM; in the experiment with SF-295 it was > 100 µM (inactive); with TK-10, > 100 µM (inactive); in the experiment with SF-539, > 100 µM (inactive); with OVCAR-5 it was > 100 µM (inactive); in the experiment on UACC-62 it was > 100 µM (inactive). For the same molecule, the GI50 in the experiment on SK-OV-3, with ACHN, in the experiment on CAKI-1, in the experiment on K562, in the experiment on MOLT-4 and in the experiment with MDA-N was > 100 µM (inactive) in each case. Also, the GI50 in the experiment with MCF7, in the experiment with EKVX, in the experiment with LOX IMVI, in the experiment with COLO 205 and with UACC-257 was > 100 µM (inactive) throughout.

As to `COc1cc2c(cc1C)NC(=O)/C2=C\c1ccncc1`, the GI50 with HCT-15 is 4.28 µM; with SF-295 it was 4.99 µM (inactive); with TK-10, 5.86 µM (inactive); with SF-539, 2.82 µM (inactive); with OVCAR-5, 10.9 µM (inactive); in the experiment with UACC-62, 5.53 µM (inactive). The GI50 with SK-OV-3 was 3.96 µM (inactive); in the experiment on ACHN, 6.05 µM (inactive); with CAKI-1 it was 3.57 µM (inactive); in the experiment on K562, 3.66 µM (inactive); with MCF7, 3.03 µM (inactive); with EKVX, 6.7 µM (inactive). For the same molecule, the GI50 with COLO 205 is 7.19 µM (inactive); in the experiment on UACC-257, 5.19 µM (inactive).

As to `C/C(Nc1ccc(F)cc1)=C1/CCOC1=O`, the GI50 with HCT-15 is > 100 µM; in the experiment with SF-295 it was 16.5 µM (inactive); in the experiment with TK-10, > 100 µM (inactive); in the experiment on RPMI-8226 it was > 100 µM (inactive); in the experiment with SF-539 it was 77.3 µM (inactive); with UACC-62 it was 0.277 µM (active). Moreover, the GI50 in the experiment with ACHN is 1.8 µM (inactive); in the experiment on K562 it was 62.8 µM (inactive); in the experiment with MOLT-4 it was 24.5 µM (inactive); with EKVX, > 100 µM (inactive); in the experiment with LOX IMVI, 2.25 µM (inactive); in the experiment on COLO 205, 4.7 µM (inactive). In the experiment on UACC-257, the GI50 is > 100 µM (inactive).

In the case of `CC(C)N(C(=O)C12C3(C(=O)C(C)(C)C)C4C5(C#N)C3C1(C(=O)C(C)(C)C)C5C42C(=O)C(C)(C)C)C(C)C` (stereo unspecified), the GI50 is > 100 µM in the experiment on HCT-15; > 100 µM (inactive) in the experiment with SF-295; > 100 µM (inactive) with TK-10; > 100 µM (inactive) in the experiment with SF-539; > 100 µM (inactive) in the experiment with OVCAR-5; > 100 µM (inactive) with UACC-62. Further, the GI50 in the experiment with ACHN, in the experiment with CAKI-1, with K562, in the experiment with MOLT-4, in the experiment with MDA-N and in the experiment on MCF7 was > 100 µM (inactive) each time. The GI50 in the experiment on EKVX, in the experiment with LOX IMVI, with COLO 205 and in the experiment with UACC-257 was > 100 µM (inactive) throughout.

Regarding `Cc1ccccc1C(O)(c1nccn1C)c1nccn1C`, the GI50 was > 100 µM with HCT-15; > 100 µM (inactive) with SF-295; > 100 µM (inactive) with TK-10; > 100 µM (inactive) in the experiment on SF-539; > 100 µM (inactive) with OVCAR-5; > 100 µM (inactive) in the experiment on UACC-62. Also, the GI50 in the experiment on SK-OV-3, with ACHN, with CAKI-1, in the experiment on K562, with MOLT-4 and in the experiment with MDA-N was > 100 µM (inactive) each time. Besides, the GI50 with MCF7, in the experiment on EKVX, in the experiment with COLO 205 and with UACC-257 was > 100 µM (inactive) in each case.

Turning to `NNc1ncnc2cccc(Cl)c12`, the GI50 was > 100 µM in the experiment on HCT-15; > 100 µM (inactive) in the experiment with SF-295; > 100 µM (inactive) in the experiment on TK-10; > 100 µM (inactive) in the experiment with SF-539; > 100 µM (inactive) in the experiment with OVCAR-5; > 100 µM (inactive) in the experiment on UACC-62. The GI50 with SK-OV-3, in the experiment with ACHN, in the experiment on CAKI-1, with K562, in the experiment with MOLT-4 and in the experiment on MDA-N was > 100 µM (inactive) in each case. The GI50 in the experiment with MCF7 is > 100 µM (inactive); in the experiment with EKVX, 17.8 µM (inactive); in the experiment with COLO 205 it was > 100 µM (inactive); in the experiment on UACC-257, > 100 µM (inactive).

`CC(NC(=O)CNC(=O)OC(C)(C)C)C(=O)NC(Cc1ccccc1)C(=O)OCc1ccccc1` (stereo not drawn) (Boc-Gly-Ala-Phe-OBn; configuration not given here): the GI50 in the experiment with HCT-15 was > 100 µM; in the experiment on SF-295 it was > 100 µM (inactive); in the experiment on TK-10, > 100 µM (inactive); in the experiment on SF-539, > 100 µM (inactive); in the experiment with OVCAR-5 it was > 100 µM (inactive); with UACC-62 it was > 100 µM (inactive). The GI50 was > 100 µM (inactive) with SK-OV-3; > 100 µM (inactive) with ACHN; > 100 µM (inactive) in the experiment with CAKI-1; 40.3 µM (inactive) in the experiment on K562; 36 µM (inactive) with MOLT-4; > 100 µM (inactive) in the experiment with MDA-N. Further, the GI50 in the experiment with MCF7 was > 100 µM (inactive); in the experiment with EKVX, > 100 µM (inactive); in the experiment on LOX IMVI, 7.23 µM (inactive); in the experiment with COLO 205, > 100 µM (inactive); in the experiment with UACC-257 it was > 100 µM (inactive).

The values are drawn from ChEMBL document CHEMBL1201862, “PubChem BioAssay data set” (2004).
